Data set [1] is described as follows: Hepatic microsomal stability, MLM. The settings on record: In vitro mouse liver microsomal stability; for perc_remaining_no_cofactor: no cofactor. The data set is classed as in vitro ADME.
Data set [2] relates to SARS-CoV-2, isolate USA-WA1/2020. As to the kind of experiment: microbe, parasite or virus in culture. The data set is classed as cell-based. The conditions noted are these: HeLa-ACE2 SARS-CoV-2 antiviral effect without P-gp inhibitor; for perc_max_measured: maximum measured response of dose series; for perc_min_measured: minimum measured response of dose series; for EC50: read-out: ec50; for EC90: read-out: ec90.

A further data set in a line: LogD. The conditions noted are these: pH 7.4; In vitro LogD.
The next data set in a line: in vitro. The conditions noted are these: human, hela-ace2 cells, 50.0.
Data set [3] in a line: Permeability Papp (AB) MDR1/MDCKII. The settings on record: In vitro MDR1-MDCKII permeability; for papp_a_to_b_mean: A to B; for perc_recovery_a_to_b_mean: recovery A to B.
The nature of data set [4]: In vitro kinetic solubility. The conditions noted are these: In vitro kinetic solubility, ph 7.4.
The next data set has as its system HeLa-ACE2 cells. The settings on record: for perc_max_measured: highest measured response of the dose series; for perc_min_measured: lowest measured response of the dose series.
The nature of data set [5]: Hepatic microsomal stability, HLM. The data set is classed as in vitro ADME, human. The settings on record: In vitro human liver microsomal stability; for perc_remaining_no_cofactor: no cofactor.
Setting [6] is: protocol HeLa-ACE2 cytotoxicity.

In brackets after ≈: the same amount, converted by molar mass. Like-named read-outs stand apart in the source and are kept apart here. Some results are limits rather than exact numbers.

Turning to `CCNC(=O)c1cc2c(N[C@@H](c3ccc4c(c3)S(=O)(=O)NCC4)C(C)C)ncnc2[nH]1` [ASAP-0011076], in data set [1], the clint was 45.0 µL/min/mg, the perc_remaining was found to be 49.0%, the t_half was determined as 36.8 min and the perc_remaining_no_cofactor was found to be 101.0%. In data set [2], the perc_max_measured was determined as 101.15%, the perc_min_measured stood at 78.382%, the EC50 was over 20 µM and the EC90 was over 20 µM. In “LogD”, the logd is 2.6. Further, in the data set “in vitro”, the CC50 at 24 h was over 20 µM. In data set [3] (mean), this molecule gave a papp_a_to_b_mean of 1.96 ×10⁻⁶ cm/s and a perc_recovery_a_to_b_mean of 97.7%. For the same molecule, the solubility_mean in data set [4] worked out at 344 µM (≈ 152 µg/mL). In the data set on HeLa-ACE2 cells (HeLa-ACE2 cytotoxicity), this molecule yielded a CC50 of over 20 µM, a cc10 of over 20.0 µM, a perc_max_measured of 99.412% and a perc_min_measured of 92.285%. In addition, in data set [5], the clint came out at 85.0 µL/min/mg, the perc_remaining was determined as 24.0%, the t_half is 19.7 min and the perc_remaining_no_cofactor stood at 107.0%.
Take `CC(C)[C@@H](Nc1ncnc2[nH]c(-c3cnn(C)c3)cc12)c1ccc2c(c1)S(=O)(=O)NCC2` [ASAP-0011192]: in data set [1], the clint came out at 87.0 µL/min/mg, the perc_remaining is given as 23.0%, the t_half stood at 19.1 min and the perc_remaining_no_cofactor was determined as 92.0%. Also, in data set [2], the perc_max_measured turned out to be 105.419%, the perc_min_measured stood at 69.993%, the EC50 is over 20 µM and the EC90 was over 20 µM. The molecule also had a logd in “LogD” of 3.2. In the data set “in vitro”, this molecule had a CC50 at 24 h of over 20 µM. Besides, in data set [3] (mean), the papp_a_to_b_mean came out at 1.58 ×10⁻⁶ cm/s and the perc_recovery_a_to_b_mean is on record as 93.2%. Besides, the solubility_mean in data set [4] worked out at 105 µM (≈ 47.4 µg/mL). For the same molecule, in the data set on HeLa-ACE2 cells (HeLa-ACE2 cytotoxicity), the CC50 was over 20 µM, the cc10 was over 20.0 µM, the perc_max_measured was found to be 100.208% and the perc_min_measured is reported as 90.498%. Also, in data set [5], the clint came to 120.0 µL/min/mg, the perc_remaining was found to be 13.0%, the t_half is 13.9 min and the perc_remaining_no_cofactor was 98.0%.
Take `CC(C)[C@@H](Nc1ncnc2[nH]c(-c3ccc4nnn(C)c4c3)cc12)c1ccc2c(c1)S(=O)(=O)CCC2` [ASAP-0011201]: in data set [1], the clint turned out to be 219.0 µL/min/mg, the perc_remaining is 3.0%, the t_half stood at 7.6 min and the perc_remaining_no_cofactor is 93.0%. Further, in data set [2], the perc_max_measured turned out to be 110.665%, the perc_min_measured is given as 33.895%, the EC50 came to 3.64 µM and the EC90 was over 20 µM. In the data set “LogD”, this molecule had a logd of 3.4. Besides, the CC50 at 24 h in “in vitro” is over 20 µM. In data set [3] (no inhibitor), the papp_a_to_b_mean amounted to 0.827 ×10⁻⁶ cm/s and the perc_recovery_a_to_b_mean came to 53.6%. Further, the solubility_mean in data set [4] was 6 µM (≈ 3.01 µg/mL). Further, in the data set with HeLa-ACE2 cells (HeLa-ACE2 cytotoxicity), the CC50 is over 20 µM, the cc10 was over 20.0 µM, the perc_max_measured is 106.149% and the perc_min_measured turned out to be 70.638%. Also, in data set [5], the clint was determined as 752.0 µL/min/mg, the perc_remaining turned out to be 0.0%, the t_half is 2.2 min and the perc_remaining_no_cofactor amounted to 93.0%.
Turning to `CC(C)[C@@H](Nc1ncnc2[nH]cc(C(=O)NC3CC3)c12)c1ccc2c(c1)S(=O)(=O)CCC2` [ASAP-0011207], in data set [1], the clint turned out to be 1740.0 µL/min/mg, the perc_remaining turned out to be 0.0%, the t_half was 1.0 min and the perc_remaining_no_cofactor worked out at 102.0%. Moreover, in data set [2], the perc_max_measured was found to be 103.36%, the perc_min_measured was found to be 37.723%, the EC50 was found to be 14.4 µM and the EC90 was over 20 µM. Also, in the data set “LogD”, the logd was 3.2. This molecule also displayed a CC50 at 24 h in the data set “in vitro” of over 20 µM. In addition, in data set [3] (mean), the papp_a_to_b_mean amounted to 2.97 ×10⁻⁶ cm/s and the perc_recovery_a_to_b_mean is 85.8%. Also, the solubility_mean in data set [4] was 216 µM (≈ 98 µg/mL). For the same molecule, in the data set on HeLa-ACE2 cells (HeLa-ACE2 cytotoxicity), the CC50 is over 20 µM, the cc10 is over 20.0 µM, the perc_max_measured worked out at 109.458% and the perc_min_measured is listed as 97.44%. Moreover, in data set [5], the clint turned out to be 409.0 µL/min/mg, the perc_remaining is 0.0%, the t_half was 4.1 min and the perc_remaining_no_cofactor worked out at 111.0%.
On to `CC(C)[C@@H](Nc1ncnc2[nH]c(-c3ccc4cncn4c3)cc12)c1ccc2c(c1)S(=O)(=O)CCC2` [ASAP-0011215], for which, in data set [1], the clint stood at 170.0 µL/min/mg, the perc_remaining is reported as 6.0%, the t_half is listed as 9.8 min and the perc_remaining_no_cofactor is on record as 87.0%. In addition, in data set [2], the perc_max_measured came to 92.609%, the perc_min_measured was 28.375%, the EC50 came out at 7.12 µM and the EC90 was over 20 µM. The same molecule displayed a logd in the data set “LogD” of 4.0. Besides, the CC50 at 24 h in the data set “in vitro” was over 20 µM. In data set [3] (no inhibitor), this molecule returned a papp_a_to_b_mean of 0.56 ×10⁻⁶ cm/s and a perc_recovery_a_to_b_mean of 70.8%. This molecule also came in with a solubility_mean in data set [4] of 14 µM (≈ 6.81 µg/mL). In the data set on HeLa-ACE2 cells (HeLa-ACE2 cytotoxicity), this molecule registered a CC50 of over 20 µM, a cc10 of over 20.0 µM, a perc_max_measured of 108.268% and a perc_min_measured of 81.968%. Further, in data set [5], the clint was 210.0 µL/min/mg, the perc_remaining is recorded as 4.0%, the t_half was determined as 8.0 min and the perc_remaining_no_cofactor is 97.0%.
In the case of `CC(C)[C@@H](Nc1ncnc2[nH]c(-c3cnn(CC(N)=O)c3)cc12)c1ccc2c(c1)S(=O)(=O)CCC2` [ASAP-0011432], in data set [1], the clint was found to be 96.0 µL/min/mg, the perc_remaining is listed as 20.0%, the t_half amounted to 17.4 min and the perc_remaining_no_cofactor was 111.0%. Also, in data set [2], the perc_max_measured is 127.59%, the perc_min_measured came to 107.301%, the EC50 is over 20 µM and the EC90 was over 20 µM. The logd in the data set “LogD” amounted to 2.0. The CC50 at 24 h in “in vitro” is over 20 µM. In data set [3] (mean), this molecule gave a papp_a_to_b_mean of 0.719 ×10⁻⁶ cm/s and a perc_recovery_a_to_b_mean of 76.6%. The same molecule showed a solubility_mean in data set [4] of 335 µM (≈ 165 µg/mL). In the data set with HeLa-ACE2 cells (setting [6]), the CC50 is over 20 µM, the cc10 was over 20.0 µM, the perc_max_measured is 97.628% and the perc_min_measured is given as 83.24%. In addition, in data set [5], the clint is 115.0 µL/min/mg, the perc_remaining is listed as 15.0%, the t_half turned out to be 14.5 min and the perc_remaining_no_cofactor came out at 103.0%.
`CC(C)[C@@H](Nc1ncnc2[nH]ccc12)c1ccc2c(c1)S(=O)(=O)CCO2` [ASAP-0012318]: in data set [1], the clint was found to be 69.0 µL/min/mg, the perc_remaining is listed as 33.0%, the t_half amounted to 24.2 min and the perc_remaining_no_cofactor was 111.0%. In data set [2], the perc_max_measured is 99.283%, the perc_min_measured was found to be 83.757%, the EC50 is over 20 µM and the EC90 is over 20 µM. Further, the logd in “LogD” was determined as 2.6. The molecule further had a CC50 at 24 h in “in vitro” of over 20 µM. In addition, in data set [3] (no inhibitor), the papp_a_to_b_mean turned out to be 4.4 ×10⁻⁶ cm/s and the perc_recovery_a_to_b_mean is given as 69.0%. The molecule further showed a solubility_mean in data set [4] of 372 µM (≈ 139 µg/mL). In the data set with HeLa-ACE2 cells (HeLa-ACE2 cytotoxicity), this molecule returned a CC50 of over 20 µM, a cc10 of over 20.0 µM, a perc_max_measured of 106.826% and a perc_min_measured of 90.526%. In data set [5], the clint is 18.0 µL/min/mg, the perc_remaining was 74.0%, the t_half is on record as 91.3 min and the perc_remaining_no_cofactor amounted to 92.0%.
As for `CC(C)[C@@H](Nc1ncnc2[nH]c(-c3cncc(S(C)(=O)=O)c3)cc12)c1ccc2c(c1)S(=O)(=O)CCC2` [ASAP-0012320], in data set [1], the clint worked out at 272.0 µL/min/mg, the perc_remaining stood at 1.0%, the t_half worked out at 6.1 min and the perc_remaining_no_cofactor is given as 112.0%. Moreover, in data set [2], the perc_max_measured is 119.816%, the perc_min_measured came to 96.629%, the concentration for a half-maximal effect (EC50) was over 20 µM and the EC90 was over 20 µM. The same molecule displayed a logd in the data set “LogD” of 3.1. The CC50 at 24 h in the data set “in vitro” was over 20 µM. Further, in data set [3] (no inhibitor), the papp_a_to_b_mean was found to be 0.491 ×10⁻⁶ cm/s and the perc_recovery_a_to_b_mean came to 66.6%. In data set [4], this molecule showed a solubility_mean of 31 µM (≈ 16.3 µg/mL). Moreover, in the data set on HeLa-ACE2 cells (HeLa-ACE2 cytotoxicity), the CC50 is over 20 µM, the cc10 is over 20.0 µM, the perc_max_measured came out at 98.548% and the perc_min_measured stood at 93.918%. Further, in data set [5], the clint worked out at 635.0 µL/min/mg, the perc_remaining is reported as 1.0%, the t_half is 2.6 min and the perc_remaining_no_cofactor was found to be 104.0%.

The record behind these values is paper doi:10.1101/2024.08.19.608619, “Discovery of potent SARS-CoV-2 nsp3 macrodomain inhibitors uncovers lack of translation to cellular antiviral response” (bioRxiv, 2024).
